Where “and” joins values, the source holds several entries; their conditions need not be identical. Equal entries are not always repeated.
Tests used:
[1] = biological target: T1, GluN1/GluN2B-F114AzF receptors (Rattus norvegicus (GluN1-1a); Mus musculus (GluN2B), UniProt P35439+Q01097); assay: Ifenprodil and Zn2+ inhibition dose-response, TEVC in Xenopus laevis oocytes; assay type: cell-based; conditions: for IC50 / Zn2+ Hill coefficient nH: F114AzF mutant
Description: (§1) Oocytes were prepared and injected as described previously. Recombinant NMDARs were expressed in Xenopus laevis oocytes after nuclear injection of 36 nl of a mixture cDNAs encoding various GluN1 and GluN2 subunits (ratio 1:1, 10 ng/μl for GluN2A and 30 ng/μl for GluN2B). For Uaa incorporation, oocytes were co-injected with a 36 nl mixture of cDNAs containing GluN1, GluN2, Yam, and aaRS as follows, unless otherwise indicated in the text: GluN1-wt (60 ng/μl), GluN2A-F115AzF (60 ng/μl), Yam (5 ng/μl), AzF-RS (2.5 ng/μl); or, GluN1-wt (80 ng/μl), GluN2B-F114AzF (80 ng/μl), Yam (10 ng/μl), AzF-RS (5 ng/μl). After injection, oocytes were incubated at 19 °C in a Barth solution (88 mM NaCl, 1 mM KCl, 0.33 mM Ca(NO3)2, 0.41 mM CaCl2, 0.82 mM MgSO4, 2.4 mM NaHCO3, 10 mM HEPES, pH adjusted to 7.6 with NaOH) supplemented with gentamicin sulfate ([…]) and D-APV (50 μM). AzF was dissolved with sonication in Barth solution (stock solution at 10 mM), and diluted (1 mM) for oocytes incubation.
(§2) For all experiments, the standard external solutions contained: 100 mM NaCl, […] BaCl2, and 5 mM HEPES, pH adjusted to 7.3 with KOH. […] Currents were recorded and measured at a holding potential of −60 mV at room temperature.
(§3) The measurements at 30 μM were corrected by multiply with a correcting value to remove the pore blocking effect at −60 mV[49]. Zinc was prepared at 100 mM ZnCl2 stock (in 1% HCl). In all zero-Zn^2+ control solutions, diethylenetriamine-pentaacetic acid (DTPA, 10 μM) was added to chelate trace Zn^2+ and other heavy metals. Spermine potentiation was analyzed as described earlier. Solutions of 200 μM spermine (Sigma-Aldrich) were made by directly diluting the powder into the standard agonist solution. Spermine sensitivity was assessed at pH 6.5 in order to maximize the spermine-induced potentiation. Experiments with MK-801 were performed as described previously. MK-801 solutions (10–50 nM) were prepared by dilution of stock solution (50 μM) into agonist containing solution[4]. MK-801 time constants of inhibition (τon) were obtained by fitting currents with a single-exponential component to a time window corresponding to 10–90% of maximum inhibition. Each τon was then normalized to the mean τon of wt receptors measured the same day.
(§4) For all functional recordings in Xenopus oocytes, online UV light treatment with PE-2 light source (CoolLED) using a 365 nm filter channeled through optical fiber was directly applied to the dark hemisphere of the oocytes in the recording chamber. […] For measurements in presence of agonists and allosteric modulators, the UV application duration was ~3 min. In the absence of agonist, the UV application duration was ~5 min.

[2] = biological target: T2, wt GluN1/GluN2B receptors (UniProt P35439+Q01097); assay: as above; assay type: cell-based, rat GluN1-1a, mouse GluN2B
T2 sequence (Q01097 27-1482, other chains not shown): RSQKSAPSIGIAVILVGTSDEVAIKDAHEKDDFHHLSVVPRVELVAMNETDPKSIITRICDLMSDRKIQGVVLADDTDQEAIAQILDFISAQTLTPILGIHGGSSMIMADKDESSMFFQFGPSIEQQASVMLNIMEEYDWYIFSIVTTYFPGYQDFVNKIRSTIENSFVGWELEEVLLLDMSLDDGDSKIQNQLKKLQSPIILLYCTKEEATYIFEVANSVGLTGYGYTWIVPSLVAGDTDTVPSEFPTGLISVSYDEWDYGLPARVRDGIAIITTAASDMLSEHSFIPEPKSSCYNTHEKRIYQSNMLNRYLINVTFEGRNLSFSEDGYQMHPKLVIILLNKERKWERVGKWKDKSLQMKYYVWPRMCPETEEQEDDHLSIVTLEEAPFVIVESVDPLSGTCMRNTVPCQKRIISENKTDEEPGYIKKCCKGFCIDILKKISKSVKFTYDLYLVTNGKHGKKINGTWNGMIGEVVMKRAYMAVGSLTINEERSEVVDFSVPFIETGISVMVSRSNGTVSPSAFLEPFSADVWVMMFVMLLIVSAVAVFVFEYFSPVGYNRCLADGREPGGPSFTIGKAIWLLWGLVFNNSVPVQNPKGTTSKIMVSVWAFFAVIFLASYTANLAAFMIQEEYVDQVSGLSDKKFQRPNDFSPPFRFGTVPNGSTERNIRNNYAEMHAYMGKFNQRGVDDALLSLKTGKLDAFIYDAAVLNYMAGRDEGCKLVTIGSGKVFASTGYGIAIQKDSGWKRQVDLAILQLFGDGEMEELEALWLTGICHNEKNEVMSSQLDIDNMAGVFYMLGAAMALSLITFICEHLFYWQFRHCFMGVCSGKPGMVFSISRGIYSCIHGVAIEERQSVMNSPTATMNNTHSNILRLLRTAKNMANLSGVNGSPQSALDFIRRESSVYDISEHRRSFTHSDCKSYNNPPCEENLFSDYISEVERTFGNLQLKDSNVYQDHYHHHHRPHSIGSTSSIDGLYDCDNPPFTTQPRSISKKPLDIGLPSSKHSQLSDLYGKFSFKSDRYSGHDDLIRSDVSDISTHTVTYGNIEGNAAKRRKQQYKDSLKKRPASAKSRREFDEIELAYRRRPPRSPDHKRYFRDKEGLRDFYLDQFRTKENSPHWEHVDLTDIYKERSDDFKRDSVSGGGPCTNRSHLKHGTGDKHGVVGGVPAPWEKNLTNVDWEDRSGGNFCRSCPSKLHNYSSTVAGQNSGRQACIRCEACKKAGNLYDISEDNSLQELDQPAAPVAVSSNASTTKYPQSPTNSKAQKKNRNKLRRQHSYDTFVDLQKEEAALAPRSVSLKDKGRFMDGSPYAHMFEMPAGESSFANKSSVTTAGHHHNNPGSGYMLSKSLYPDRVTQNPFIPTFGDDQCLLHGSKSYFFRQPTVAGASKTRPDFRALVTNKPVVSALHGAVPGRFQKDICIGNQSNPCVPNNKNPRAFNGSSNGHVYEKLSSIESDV
Description: as §1, §2, §3, §4

[3] = biological target: T1, GluN1/GluN2B-F114AzF receptors; assay: UV-induced current potentiation in the presence of allosteric modulators, TEVC in oocytes; assay type: cell-based, rat GluN1-1a, mouse GluN2B; parameters: expressed in transfected cells; host or cells: Xenopus laevis oocytes co-injected with GluN1, GluN2B amber mutant, Yam suppressor tRNA and AzF-RS, incubated with 1 mM AzF
Text: To evaluate whether AzF photo-activation in GluN2B produces functional changes, we applied a time-resolved assay[10] by combining online application of UV light and simultaneously recording of agonist-induced currents using TEVC. Current after UV illumination (Iuv) were compared to currents before UV illumination (Io) and yielded the relative current changes (Iuv/Io).
To understand how the NTD dimer interfacial contact influences allosteric modulation, we have quantified UV-induced potentiation in the presence of different modulators, including a GluN2B specific positive allosteric modulator spermine.
as §2, §3, §4

[4] = biological target: T2, wt GluN1/GluN2B receptors; assay: MK-801 inhibition kinetics (index of channel open probability), TEVC in oocytes; assay type: cell-based, rat GluN1-1a, mouse GluN2B; conditions: 50 nM MK-801, normalized to mean τon of wt
Description: (§5) To analyze the gating property change, we assessed channel maximal open probability (Po) using MK-801, a specific open-pore blocker of NMDARs[25]. Because the rate at which MK-801 inhibits the macroscopic NMDAR responses is proportional to the level of channel activity (i.e. Po), this MK-801 assay is classically used to index NMDAR channel activity.
as §2
as §3, with “MK-801 solutions (10–50 nM) were prepared by dilution of stock solution (50 μM) into agonist containing solution[4]. MK-801 time constants of inhibition (τon) were obtained by fitting currents with a single-exponential component to a time window corresponding to 10–90% of maximum inhibition.” left out, “day. […]” for “day.”

[5] = biological target: T1, GluN1/GluN2B-F114AzF receptors; assay: as above; assay type: cell-based, rat GluN1-1a, mouse GluN2B; parameters: expressed in transfected cells; host or cells: Xenopus laevis oocytes co-injected with GluN1, GluN2B amber mutant, Yam suppressor tRNA and AzF-RS, incubated with 1 mM AzF; conditions: 50 nM MK-801, normalized to mean τon of wt
Description: as §5, §2
as §3, with “MK-801 solutions (10–50 nM) were prepared by dilution of stock solution (50 μM) into agonist containing solution[4]. MK-801 time constants of inhibition (τon) were obtained by fitting currents with a single-exponential component to a time window corresponding to 10–90% of maximum inhibition.” left out, “day. […]” for “day.”

[6] = biological target: T1, GluN1/GluN2B-F114AzF receptors; conditions: 200 μM spermine, pH 6.5, without UV
Description: For all experiments, the standard external solutions contained: 100 mM NaCl, 300 mM BaCl2, and 5 mM HEPES, pH adjusted to 7.3 with KOH. […] Currents were recorded and measured at a holding potential of −60 mV at room temperature.
The measurements at 30 μM were corrected by multiply with a correcting value to remove the pore blocking effect at −60 mV[49]. Zinc was prepared at 100 mM ZnCl2 stock (in 1% HCl). In all zero-Zn^2+ control solutions, diethylenetriamine-pentaacetic acid (DTPA, 10 μM) was added to chelate trace Zn^2+ and other heavy metals[25]. […] Experiments with MK-801 were performed as described previously. MK-801 solutions (10–50 nM) were prepared by dilution of stock solution (50 μM) into agonist containing solution[4]. MK-801 time constants of inhibition (τon) were obtained by fitting currents with a single-exponential component to a time window corresponding to 10–90% of maximum inhibition. Each τon was then normalized to the mean τon of wt receptors measured the same day.

wild-type GluN1 (rat) = wild-type GluN1 (rat) (UniProt P35439)

T1 sequence (Q01097 27-1482, other chains not shown): as above

`[Cl-].[Cl-].[Zn+2]` [Zn^2+, ZnCl2] was tested, and the “Maximal inhibition (%)” value ([1]; 0.1uM inhibitor, +UV) was 16 ± 7%, the “Maximal inhibition (%)” value ([1]; 0.1uM inhibitor, -UV) was 25 ± 8% and the “Maximal inhibition (%)” value ([1]; 1uM inhibitor, +UV) was 35 ± 4%. The “Maximal inhibition (%)” value ([1]; 1uM inhibitor, -UV) was 49 ± 11%, the “Maximal inhibition (%)” value ([1]; 10uM inhibitor, +UV) was 83 ± 1% and the “Maximal inhibition (%)” value ([1]; 10uM inhibitor, -UV) was 87 ± 4%. The “Change in Zn2+ maximal inhibition” value ([1]; F114AzF mutant before and after UV versus wt) was “no change”, the IC50 ([1]; after UV) was 1720 ± 600 nM and the “Zn2+ Hill coefficient nH” value ([1]; after UV) was 0.77. The IC50 ([1]; before UV) was 780 ± 250 nM, the “Zn2+ Hill coefficient nH” value ([1]; before UV) was 0.62 and the IC50 ([2]; after UV) was 720 ± 120 nM. The “Zn2+ Hill coefficient nH” value ([2]; after UV) was 0.78, the IC50 ([2]; before UV) was 580 ± 130 nM and the “Zn2+ Hill coefficient nH” value ([2]; before UV) was 0.59. The “Relative current (I+uv/I0) after wash-off of modulator” value ([3]; 10 μM Zn2+ with co-agonists, +UV (~3 min, 365 nm)) was 1.40 ± 0.43 and the “Relative current (I/I0) after wash-off of modulator” value ([3]; 10 μM Zn2+ with co-agonists, -UV) was 0.92 ± 0.29.

In the case of `C[C@]12N[C@H](Cc3ccccc31)c1ccccc12` [MK-801, (+)-MK-801], the “Relative MK-801 τon” value ([4]; wild-type with UV) is reported as 0.90 ± 0.06, the “Relative MK-801 τon” value ([4]; wild-type without UV) is reported as 1.00 and the “Relative MK-801 τon” value ([5]; F114AzF mutant with UV) is reported as 0.80 ± 0.07. For the same molecule, the “Relative MK-801 τon” value ([5]; F114AzF mutant without UV) was 1.81 ± 0.47.

With `NCCCNCCCCNCCCN` [spermine] the “Spermine potentiation of receptor activation” value [6] was 4.6 fold, the “Relative current (I+uv/I0)” value ([3]; 200 μM spermine, pH 6.5, +UV (~3 min, 365 nm)) was 2.80 ± 0.64 and the “Relative current (I/I0)” value ([3]; 200 μM spermine, pH 6.5, -UV) was 0.85 ± 0.10. The “τon of UV induced additional potentiation” value ([3]; in the presence of 200 μM spermine, pH 6.5) was 50.8 s.

With `CC(C(O)c1ccc(O)cc1)N1CCC(Cc2ccccc2)CC1` (centres unmarked) [ifenprodil] the Ifenprodil maximal inhibition [1] was 77% and 67%, the “Maximal inhibition (%)” value ([1]; 0.1 µM) was 16 ± 3% and 9 ± 4 % and the “Maximal inhibition (%)” value ([1]; 1 µM) was 54 ± 4% and 35 ± 4 %. The “Maximal inhibition (%)” value ([1]; 10 µM) was 77 ± 3% and 55 ± 3 %, the “Ifenprodil Hill coefficient nH” value [2] was 1.14 and the “Effect on UV potentiation” value ([3]; in the presence of ifenprodil) was “completely abolished”.

“GluN2B-F114AzF (from UniProt Q01097 27-1482) (receptor)” gave a relative current Iuv/Io after UV illumination of maximally activated receptors (TEVC in oocytes, UV-induced potentiation) (wild-type GluN1 (rat)) of 1.97.
